# Test system: 958767-090-R-J1-PDC spheroid growth
# Assay: Anticancer human tumor 958767-090-R-J1-PDC patient-derived head and neck squamous carcinoma cell line growth inhibition [IpAb]
# Details: spheroids with HUVEC and MSC; for IC50: curve of first compound; for viability, T/C: stronger effect = lower value
# Method in brief: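 Combinations with ipatasertib or abemaciclib were tested on tumour spheroids holding HUVEC (25%) and MSC (15%) alongside 60% malignant cells. Top concentration was at or near clinical Cmax (10 microM if undefined), descending in half-log steps.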
# [1] = second compound 0.1 µM, first compound 0.0316 µM
# [2] = second compound 0.1 µM, first compound 0.1 µM
# [3] = second compound 0.316 µM, first compound 0.0316 µM
# [4] = second compound 0.316 µM, first compound 0.1 µM
# [5] = second compound 1 µM, first compound 0.0316 µM
# [6] = second compound 1 µM, first compound 0.1 µM
# [7] = second compound 3.16 µM, first compound 0.0316 µM
# [8] = second compound 3.16 µM, first compound 0.1 µM
# [9] = second compound 10 µM, first compound 0.0316 µM
# [10] = second compound 10 µM, first compound 0.1 µM
# 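Further: spheroids exposed to agents for 7 days.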
# 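Wherever viability, T/C is given: 100% = DMSO vehicle control wells.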
structure (smiles),measurement,setting,value
C=CC(=O)N1CCN(c2nc(=O)n(-c3c(C)ccnc3C(C)C)c3nc(-c4c(O)cccc4F)c(F)cc23)C(C)C1 (stereo not given) + CC(C)NCC(C(=O)N1CCN(c2ncnc3c2C(C)CC3O)CC1)c1ccc(Cl)cc1,IC50,second compound 0.1 µM,5020 nM
same,IC50,second compound 0.316 µM,1870 nM
same,IC50,second compound 1 µM,835 nM
same,IC50,second compound 3.16 µM,1580 nM
same,IC50,second compound 10 µM,1050 nM
same,"viability, T/C",[1],82%
same,"viability, T/C",[2],86.5%
same,"viability, T/C","second compound 0.1 µM, first compound 0.316 µM",84.4%
same,"viability, T/C","second compound 0.1 µM, first compound 1 µM",86.4%
same,"viability, T/C","second compound 0.1 µM, first compound 3.16 µM",59.9%
same,"viability, T/C","second compound 0.1 µM, first compound 10 µM",35.2%
same,"viability, T/C",[3],78.5%
same,"viability, T/C",[4],71.1%
same,"viability, T/C","second compound 0.316 µM, first compound 0.316 µM",72.3%
same,"viability, T/C","second compound 0.316 µM, first compound 1 µM",54.7%
same,"viability, T/C","second compound 0.316 µM, first compound 3.16 µM",44.8%
same,"viability, T/C","second compound 0.316 µM, first compound 10 µM",28.7%
same,"viability, T/C",[5],72.8%
same,"viability, T/C",[6],57.4%
same,"viability, T/C","second compound 1 µM, first compound 0.316 µM",63.3%
same,"viability, T/C","second compound 1 µM, first compound 1 µM",48.4%
same,"viability, T/C","second compound 1 µM, first compound 3.16 µM",34%
same,"viability, T/C","second compound 1 µM, first compound 10 µM",19.2%
same,"viability, T/C",[7],63.9%
same,"viability, T/C",[8],66.9%
same,"viability, T/C","second compound 3.16 µM, first compound 0.316 µM",53.8%
same,"viability, T/C","second compound 3.16 µM, first compound 1 µM",54.5%
same,"viability, T/C","second compound 3.16 µM, first compound 3.16 µM",44.9%
same,"viability, T/C","second compound 3.16 µM, first compound 10 µM",16%
same,"viability, T/C",[9],56.2%
same,"viability, T/C",[10],54.6%
same,"viability, T/C","second compound 10 µM, first compound 0.316 µM",64.9%
same,"viability, T/C","second compound 10 µM, first compound 1 µM",48.1%
same,"viability, T/C","second compound 10 µM, first compound 3.16 µM",29.6%
same,"viability, T/C","second compound 10 µM, first compound 10 µM",5.8%
CC(C)(C)c1cnc(CSc2cnc(NC(=O)C3CCNCC3)s2)o1 + CC(C)NCC(C(=O)N1CCN(c2ncnc3c2C(C)CC3O)CC1)c1ccc(Cl)cc1,IC50,second compound 0.1 µM,119 nM
same,IC50,second compound 0.316 µM,115 nM
same,IC50,second compound 1 µM,95.7 nM
same,IC50,second compound 3.16 µM,101 nM
same,IC50,second compound 10 µM,41 nM
same,"viability, T/C","second compound 0.1 µM, first compound 0.00949 µM",98.5%
same,"viability, T/C","second compound 0.1 µM, first compound 0.03 µM",95.1%
same,"viability, T/C","second compound 0.1 µM, first compound 0.0949 µM",61.2%
same,"viability, T/C","second compound 0.1 µM, first compound 0.3 µM",3.88%
same,"viability, T/C","second compound 0.1 µM, first compound 0.949 µM",2.72%
same,"viability, T/C","second compound 0.1 µM, first compound 3 µM",2.41%
same,"viability, T/C","second compound 0.316 µM, first compound 0.00949 µM",80.6%
same,"viability, T/C","second compound 0.316 µM, first compound 0.03 µM",82.5%
same,"viability, T/C","second compound 0.316 µM, first compound 0.0949 µM",59.5%
same,"viability, T/C","second compound 0.316 µM, first compound 0.3 µM",2.24%
same,"viability, T/C","second compound 0.316 µM, first compound 0.949 µM",2.31%
same,"viability, T/C","second compound 0.316 µM, first compound 3 µM",2.18%
same,"viability, T/C","second compound 1 µM, first compound 0.00949 µM",72%
same,"viability, T/C","second compound 1 µM, first compound 0.03 µM",68%
same,"viability, T/C","second compound 1 µM, first compound 0.0949 µM",50.4%
same,"viability, T/C","second compound 1 µM, first compound 0.3 µM",1.77%
same,"viability, T/C","second compound 1 µM, first compound 0.949 µM",1.65%
same,"viability, T/C","second compound 1 µM, first compound 3 µM",2.3%
same,"viability, T/C","second compound 3.16 µM, first compound 0.00949 µM",63.6%
same,"viability, T/C","second compound 3.16 µM, first compound 0.03 µM",62.9%
same,"viability, T/C","second compound 3.16 µM, first compound 0.0949 µM",52.6%
same,"viability, T/C","second compound 3.16 µM, first compound 0.3 µM",1.26%
same,"viability, T/C","second compound 3.16 µM, first compound 0.949 µM",1.8%
same,"viability, T/C","second compound 3.16 µM, first compound 3 µM",1.85%
same,"viability, T/C","second compound 10 µM, first compound 0.00949 µM",52.6%
same,"viability, T/C","second compound 10 µM, first compound 0.03 µM",68.9%
same,"viability, T/C","second compound 10 µM, first compound 0.0949 µM",21.1%
same,"viability, T/C","second compound 10 µM, first compound 0.3 µM",1.62%
same,"viability, T/C","second compound 10 µM, first compound 0.949 µM",1.38%
same,"viability, T/C","second compound 10 µM, first compound 3 µM",1.87%
Cn1ncnc1[C@H]1c2n[nH]c(=O)c3cc(F)cc(c23)N[C@@H]1c1ccc(F)cc1 + CC(C)NCC(C(=O)N1CCN(c2ncnc3c2C(C)CC3O)CC1)c1ccc(Cl)cc1,IC50,second compound 0.1 µM,> 100 nM
same,IC50,second compound 0.316 µM,> 100 nM
same,IC50,second compound 1 µM,> 100 nM
same,IC50,second compound 3.16 µM,> 100 nM
same,IC50,second compound 10 µM,51.3 nM
same,"viability, T/C","second compound 0.1 µM, first compound 0.000316 µM",91.5%
same,"viability, T/C","second compound 0.1 µM, first compound 0.001 µM",87.8%
same,"viability, T/C","second compound 0.1 µM, first compound 0.00316 µM",91.2%
same,"viability, T/C","second compound 0.1 µM, first compound 0.01 µM",83.7%
same,"viability, T/C",[1],87.4%
same,"viability, T/C",[2],73%
same,"viability, T/C","second compound 0.316 µM, first compound 0.000316 µM",70%
same,"viability, T/C","second compound 0.316 µM, first compound 0.001 µM",77.4%
same,"viability, T/C","second compound 0.316 µM, first compound 0.00316 µM",74.7%
same,"viability, T/C","second compound 0.316 µM, first compound 0.01 µM",86.8%
same,"viability, T/C",[3],77.6%
same,"viability, T/C",[4],65.8%
same,"viability, T/C","second compound 1 µM, first compound 0.000316 µM",69.5%
same,"viability, T/C","second compound 1 µM, first compound 0.001 µM",63.9%
same,"viability, T/C","second compound 1 µM, first compound 0.00316 µM",72.2%
same,"viability, T/C","second compound 1 µM, first compound 0.01 µM",74.2%
same,"viability, T/C",[5],62.4%
same,"viability, T/C",[6],56.4%
same,"viability, T/C","second compound 3.16 µM, first compound 0.000316 µM",65%
same,"viability, T/C","second compound 3.16 µM, first compound 0.001 µM",52.6%
same,"viability, T/C","second compound 3.16 µM, first compound 0.00316 µM",58.8%
same,"viability, T/C","second compound 3.16 µM, first compound 0.01 µM",70.2%
same,"viability, T/C",[7],62.4%
same,"viability, T/C",[8],59.3%
same,"viability, T/C","second compound 10 µM, first compound 0.000316 µM",63.3%
same,"viability, T/C","second compound 10 µM, first compound 0.001 µM",55.3%
same,"viability, T/C","second compound 10 µM, first compound 0.00316 µM",58.1%
same,"viability, T/C","second compound 10 µM, first compound 0.01 µM",58.4%
same,"viability, T/C",[9],56%
same,"viability, T/C",[10],42%
